Read-outs that look alike come from different tables or passages of the source.
Assays:
[1] = system: Key Broadleaf Weed and Crop Species; test: Post-emergent Test II herbicidal activity (Table 15); type: in vivo; conditions: post-emergence, 336 h, 14 d; for pest or weed control at 35 g/ha: 35 g ai/ha; for pest or weed control at 70 g/ha: 70 g ai/ha; for pest or weed control at 140 g/ha: 140 g ai/ha
Procedure: (§1) Post-emergent Test II: Seeds or nutlets of the desired test plant species were planted in Sun Gro Metro-Mix® 360 planting mixture, which typically has a pH of 6.0 to 6.8 and an organic matter content of about 30 percent, in plastic pots with a surface area of 64 square centimeters. When required to ensure good germination and healthy plants, a fungicide treatment and/or other chemical or physical treatment was applied. The plants were grown for 7-21 d in a greenhouse with an approximate 15 h photoperiod which was maintained at about 23-29° C. during the day and 22-28° C. during the night. Nutrients and water were added on a regular basis and supplemental lighting was provided with overhead metal halide 1000-Watt lamps as necessary. The plants were employed for testing when they reached the first or second true leaf stage.
(§2) A weighed amount, determined by the highest rate to be tested, of each test compound was placed in a 25 mL glass vial and was dissolved in 4 mL of a 97:3 v/v mixture of acetone and DMSO to obtain concentrated stock solutions. […] The concentrated stock solutions obtained were diluted with 20 mL of an aqueous mixture containing acetone, water, isopropyl alcohol, DMSO, Atplus 411F crop oil concentrate, and Triton® X-155 surfactant in a 48.5:39:10:1.5:1.0:0.02 v/v ratio to obtain spray solutions containing the highest application rates. Additional application rates were obtained by serial dilution of 12 mL of the high rate solution into a solution containing 2 mL of 97:3 v/v mixture of acetone and DMSO and 10 mL of an aqueous mixture containing acetone, water, isopropyl alcohol, DMSO, Atplus 411F crop oil concentrate, and Triton X-155 surfactant in a 48.5:39:10:1.5:1.0:0.02 v/v ratio to obtain 1/2×, 1/4×, 1/8× and 1/16× rates of the high rate. Compound requirements are based upon a 12 mL application volume at a rate of 187 liters per hectare (L/ha). Formulated compounds were applied to the plant material with an overhead Mandel track sprayer equipped with 8002E nozzles calibrated to deliver 187 L/ha over an application area of 0.503 square meters at a spray height of 18 inches (43 cm) above the average plant canopy height. Control plants were sprayed in the same manner with the solvent blank.
(§3) The treated plants and control plants were placed in a greenhouse as described above and watered by subirrigation to prevent wash-off of the test compounds. After 14 d, the condition of the test plants as compared with that of the untreated plants was determined visually and scored on a scale of 0 to 100 percent where 0 corresponds to no injury and 100 corresponds to complete kill.

[2] = system: Key Grass and Sedge Weeds as well as Grass Crops; test: Post-emergent Test II herbicidal activity (Table 16); type: in vivo; conditions: post-emergence, 336 h; for pest or weed control at 35 g/ha: 35 g ai/ha; for pest or weed control at 70 g/ha: 70 g ai/ha; for pest or weed control at 140 g/ha: 140 g ai/ha
Procedure: as §1, §2, §3

[3] = Abutilon theophrasti, velvetleaf (Abutilon theophrasti), read-out: Visual Growth Reduction (%) 14 Days After Application, ABUTH
[4] = Amaranthus retroflexus, redroot pigweed (Amaranthus retroflexus), read-out: Visual Growth Reduction (%) 14 Days After Application, AMARE
[5] = Brassica napus, oilseed rape, canola (Brassica napus), read-out: Visual Growth Reduction (%) 14 Days After Application, BRSNN
[6] = Chenopodium album, lambsquarters (Chenopodium album), read-out: Visual Growth Reduction (%) 14 Days After Application, CHEAL
[7] = Euphorbia heterophylla, wild poinsettia (Euphorbia heterophylla), read-out: Visual Growth Reduction (%) 14 Days After Application, EPHHL
[8] = Helianthus annuus, sunflower (Helianthus annuus), read-out: Visual Growth Reduction (%) 14 Days After Application, HELAN
[9] = Cyperus esculentus, yellow nutsedge (Cyperus esculentus), 14 d, read-out: Visual Growth Reduction (%) 14 Days After Application, CYPES
[10] = Echinochloa crus-galli, barnyardgrass (Echinochloa crus-galli), 14 d, read-out: Visual Growth Reduction (%) 14 Days After Application, ECHCG
[11] = Oryza sativa, rice (Oryza sativa), 14 d, read-out: Visual Growth Reduction (%) 14 Days After Application, ORYSA
[12] = Setaria faberi, giant foxtail (Setaria faberi), 14 d, read-out: Visual Growth Reduction (%) 14 Days After Application, SETFA
[13] = Triticum aestivum, wheat, spring (Triticum aestivum), 14 d, read-out: Visual Growth Reduction (%) 14 Days After Application, TRZAS
[14] = Zea mays, maize, corn (Zea mays), 14 d, read-out: Visual Growth Reduction (%) 14 Days After Application, ZEAMX

Compound | melting point [°C] | pest or weed control at 35 g/ha [2, 9] [%] | pest or weed control at 70 g/ha [2, 9] [%] | pest or weed control at 140 g/ha [2, 9] [%] | pest or weed control at 35 g/ha [2, 10] [%] | pest or weed control at 70 g/ha [2, 10] [%] | pest or weed control at 140 g/ha [2, 10] [%] | pest or weed control at 35 g/ha [2, 11] [%] | pest or weed control at 70 g/ha [2, 11] [%] | pest or weed control at 140 g/ha [2, 11] [%] | pest or weed control at 35 g/ha [2, 12] [%] | pest or weed control at 70 g/ha [2, 12] [%] | pest or weed control at 140 g/ha [2, 12] [%] | pest or weed control at 35 g/ha [2, 13] [%] | pest or weed control at 70 g/ha [2, 13] [%] | pest or weed control at 140 g/ha [2, 13] [%] | pest or weed control at 35 g/ha [2, 14] [%] | pest or weed control at 70 g/ha [2, 14] [%] | pest or weed control at 140 g/ha [2, 14] [%] | further results
Nc1c(Cl)c(C(=O)O)nc(-c2ccc3cc[nH]c3c2)c1Cl [Compound 1.06] | 160 to 164 | – | – | – | – | – | – | – | – | – | – | – | – | – | – | – | – | – | – | pest or weed control at 35 g/ha [1, 3]: 0 to 29%; pest or weed control at 70 g/ha [1, 3]: 0 to 29%; pest or weed control at 140 g/ha [1, 3]: 0 to 29%; pest or weed control at 35 g/ha [1, 4]: 95 to 100%; pest or weed control at 70 g/ha [1, 4]: 85 to 94%; pest or weed control at 140 g/ha [1, 4]: 75 to 84%; pest or weed control at 35 g/ha [1, 5]: 75 to 84%; pest or weed control at 70 g/ha [1, 5]: 85 to 94%; pest or weed control at 140 g/ha [1, 5]: 85 to 94%; pest or weed control at 35 g/ha [1, 6]: 85 to 94%; pest or weed control at 70 g/ha [1, 6]: 95 to 100%; pest or weed control at 140 g/ha [1, 6]: 95 to 100%; pest or weed control at 35 g/ha [1, 7]: 0 to 29%; pest or weed control at 70 g/ha [1, 7]: 0 to 29%; pest or weed control at 140 g/ha [1, 7]: 0 to 29%; pest or weed control at 35 g/ha [1, 8]: 0 to 29%; pest or weed control at 70 g/ha [1, 8]: 0 to 29%; pest or weed control at 140 g/ha [1, 8]: 0 to 29%
COC(=O)c1nc(-c2ccc3ccn([Si](C(C)C)(C(C)C)C(C)C)c3c2F)c(F)c(N)c1Cl [Compound 1.12, methyl 4-amino-3-chloro-5-fluoro-6-(7-fluoro-1-(triisopropylsilyl)-1H-indol-6-yl)picolinate] | 181 to 182 | 0 to 29 | 0 to 29 | 0 to 29 | 0 to 29 | 0 to 29 | 85 to 94 | 0 to 29 | 0 to 29 | 0 to 29 | 75 to 84 | 60 to 74 | 75 to 84 | 45 to 59 | 0 to 29 | 0 to 29 | 0 to 29 | 0 to 29 | 0 to 29 | –
Nc1c(F)c(-c2ccc3ccoc3c2)nc(C(=O)O)c1Cl [Compound 2.08] | 168 to 170 | 0 to 29 | 0 to 29 | 0 to 29 | 85 to 94 | 85 to 94 | 95 to 100 | 0 to 29 | 30 to 44 | 30 to 44 | 45 to 59 | 60 to 74 | 85 to 94 | 0 to 29 | 0 to 29 | 0 to 29 | 45 to 59 | 60 to 74 | 60 to 74 | –
COC(=O)c1nc(-c2ccc3[nH]nnc3c2)cc(N)c1Cl [Compound 9.01] | 129 to 133 | – | – | – | – | – | – | – | – | – | – | – | – | – | – | – | – | – | – | pest or weed control at 140 g/ha ([2]; Cyperus esculentus, yellow nutsedge (Cyperus esculentus), 14 days after application, read-out: Visual Growth Reduction (%) 14 Days After Application CYPES): 95 to 100%; pest or weed control at 140 g/ha ([2]; Echinochloa crus-galli, barnyardgrass (Echinochloa crus-galli), 14 days after application, read-out: Visual Growth Reduction (%) 14 Days After Application ECHCG): 95 to 100%; pest or weed control at 140 g/ha ([2]; Oryza sativa, rice (Oryza sativa), 14 days after application, read-out: Visual Growth Reduction (%) 14 Days After Application ORYSA): 0 to 29%; pest or weed control at 140 g/ha ([2]; Setaria faberi, giant foxtail (Setaria faberi), 14 days after application, read-out: Visual Growth Reduction (%) 14 Days After Application SETFA): 0 to 29%; pest or weed control at 140 g/ha ([2]; Triticum aestivum, wheat, spring (Triticum aestivum), 14 days after application, read-out: Visual Growth Reduction (%) 14 Days After Application TRZAS): 0 to 29%; pest or weed control at 140 g/ha ([2]; Zea mays, maize, corn (Zea mays), 14 days after application, read-out: Visual Growth Reduction (%) 14 Days After Application ZEAMX): 0 to 29%

From patent US20170050957A1, “4-AMINO-6-(HETEROCYCLIC)PICOLINATES AND 6-AMINO-2-(HETEROCYCLIC)PYRIMIDINE-4-CARBOXYLATES AND THEIR USE AS HERBICIDES” (Dow AgroSciences LLC, priority 2013, published 2017)
